What was measured:
Aspergillus parasiticus = assay: microbe, parasite or virus in culture; type: cell-based; details: 168 h, 50 μM of active ingredient, 7 days, fluorescence, read-out: inhibition of aflatoxines production
[1] = logP by HPLC on reversed-phase column (EEC Directive 79/831 Annex V.A8)
Sphaerotheca fuliginea = assay: In vivo preventive test on Sphaerotheca fuliginea (cucumber), Example G; details: 10 ppm of active ingredient, evaluated 7 days after inoculation
Description: After the spray coating has dried on, the plants are inoculated with an aqueous spore suspension of Sphaerotheca fuliginea.

Fusarium nivale = assay: In vivo curative test on Fusarium nivale (wheat); details: 500 ppm of active ingredient, evaluated 8 days after inoculation
Puccinia triticina = assay: In vivo curative test on Puccinia triticina (wheat); details: 500 ppm of active ingredient, evaluated 8 days after inoculation
Tetranychus urticae = assay: Spray application test on Tetranychus urticae; type: in vivo; details: 500 g of active ingredient/ha; after 6 days
Description: Solvent: 78.0 parts by weight acetone • 1.5 parts by weight dimethylformamide
Emulsifier: 0.5 parts by weight alkylarylpolyglcolether
French beans (Phaseolus vulgaris) which are heavily infested with all stages of the two spotted spidermite (Tetranychus urticae), are sprayed with a preparation of the active ingredient at the desired concentration.
After 6 days, mortality in % is determined. 100% means that all spider mites have been killed and 0% means that none of the spider mites have been killed.

Meloidogyne incognita = assay: Test on Meloidogyne incognita; type: in vivo; details: 20 ppm of active ingredient; after 14 days
Description: Solvent: 80.0 parts by weight of acetone
Vessels are filled with sand, a solution of the active ingredient, a suspension containing eggs and larvae of Meloidogyne incognita and salad seeds. The salad seeds germinate and the seedlings grow. Galls develop in the roots.
After 14 days the nematicidal activity is determined on the basis of the percentage of gall formation. 100% means that no galls were found; 0% means that the number of galls found on the roots of the treated plants was equal to that in untreated control plants.

Fusarium proliferatum = assay: Inhibition of Fumonisin FB1 produced by Fusarium proliferatum; type: cell-based; details: 120 h, read-out: inhibition of Fumonisin FB1 production
Phakopsora pachyrhizi = assay: In vivo preventive test on Phakopsora pachyrhizi (soybean rust); details: 50 ppm of active ingredient, evaluated 11 days after inoculation
Description: Solvent: 28.5 parts by weight of acetone
Emulsifier: 1.5 parts by weight of polyoxyethylene alkyl phenyl ether
One day after spraying, the plants are inoculated with an aqueous spore suspension of the causal agent of soybean rust (Phakopsora pachyrhizi).
The test is evaluated 11 days after the inoculation.

Structure (SMILES) | inhibition at 50 µM (Aspergillus parasiticus) [%] | chromatographic logP [1] | disease control (Sphaerotheca fuliginea) [%] | disease control (Fusarium nivale) | further results
Cn1nc(C(F)F)c(C(=O)N(Cc2ccccc2[Si](C)(C)C)C2CC2)c1F [Example 3, N-cyclopropyl-3-(difluoromethyl)-5-fluoro-1-methyl-N-[2-(trimethylsilyl)benzyl]-1H-pyrazole-4-carboxamide] | > 80 | 4.36 |  |  | 
Cn1nc(C(F)F)c(C(=S)N(Cc2ccccc2[Si](C)(C)C)C2CC2)c1F [Example 38, N-cyclopropyl-3-(difluoromethyl)-5-fluoro-1-methyl-N-[2-(trimethylsilyl)benzyl]-1H-pyrazole-4-carbothioamide] | > 80 | 4.94 | 100 |  | 
CC(c1cccc2ccccc12)N(C(=O)c1c(C(F)F)nn(C)c1F)C1CC1 (centres unmarked) [N-cyclopropyl-3-(difluoromethyl)-5-fluoro-1-methyl-N-[1-(1-naphthyl)ethyl]-1H-pyrazole-4-carboxamide, reference compound] |  |  |  | less than 95% | disease control (Puccinia triticina): less than 85%
CC(C)c1ccccc1CN(C(=O)c1c(C(F)F)nn(C)c1F)C1CC1 [Example 6] |  |  | 100 | 100% | mortality in % (Tetranychus urticae): 80%; nematicidal activity (% reduction of galls vs untreated control) (Meloidogyne incognita): 80%; logP ([1]; HPLC, reversed-phase column (C 18), 40° C., 0.1% aqueous formic acid and acetonitrile, linear gradient 10% to 90% acetonitrile): 3.35
Cn1nc(C(F)F)c(C(=O)N(Cc2ncc(C(F)(F)F)cc2Cl)C2CC2)c1F [N-{[3-chloro-5-(trifluoromethyl)pyridin-2-yl]methyl}-N-cyclopropyl-3-(difluoromethyl)-5-fluoro-1-methyl-1H-pyrazole-4-carboxamide] |  |  |  |  | inhibition at 50 µM (Fusarium proliferatum): < 55%
Cc1nn(C)c(F)c1C(=S)N(Cc1ccccc1[Si](C)(C)C)C1CC1 [N-cyclopropyl-5-fluoro-1,3-dimethyl-N-[2-(trimethylsilyl)benzyl]-1H-pyrazole-4-carbothioamide] |  |  |  |  | disease control (Phakopsora pachyrhizi): less than 85%

— patent publication US8772266B2, “Fungicide pyrazole carboxamides derivates” (Bayer Cropscience AG, priority 2009, dated 2014)
